# Where “and” joins values, the source holds several entries; their conditions need not be identical. Identical values can stand only once. Entries after “also recorded” stand apart in the source; their conditions may differ. Like-named read-outs stand apart in the source and are kept apart here.
# Columns and labels:
# [1] = system: patients with advanced STS; assay: Randomized Phase 2 Study of doxorubicin with or without olaratumab (NCT01185964): PFS, OS, ORR; format: in vivo, human; details: for median OS / median PFS: Phase 2 Study
# Protocol: The Study is an open-label, multicenter, Phase 2 trial in which patients with advanced STS not amenable to treatment with surgery or radiotherapy are treated with olaratumab in combination with doxorubicin or doxorubicin alone.
# Enrolled patients who meet all eligibility criteria are randomized 1:1 to one of two treatment arms. Arm A or Arm B. Arm A patients receive olaratumab in combination with doxorubicin (hereinafter the “Combination Arm”) and Ann B patients receive doxorubicin alone (hereinafter the “Doxonthicin Arm”), Randomization of this Study is performed according to a dynamic randomization algorithm using 4 pre-defined risk factors: PDGFRα expression (positive vs. negative), number of previous lines of treatment (0 vs. 1+ lines), histological tumor type (i.e., leiomyosarcoma vs. synovial sarcoma vs. other tumor type), and ECOG performance status (0-1 vs. 2). This dynamic randomization procedure is used to minimize imbalance between treatment groups. To determine tumor type and PDGFRCL expression in patients, a tumor sample from either a biopsy or previously archived tumor tissue sample is sufficient. Biopsy is required to be performed within 21 days prior to randomization; archived tissue sample must also be available within this timeframe.
# Combination Arm: 66 patients randomized in the Combination Ann receive 15 mg/kg of olaratumab on Days 1 and 8 of each 21-day treatment cycle, in combination with 75 mg/m^2 doxorubicin administered on Day 1 of each cycle. (Note: if premedication is required prior to the first doxorubicin infusion, this is to be done after the completion of olaratumab infusion, not before the olaratumab infusion. This premedication may be administered within the hour that follows completion of the olaratumab infusion.) The actual (not planned) administration of each doxorubicin infusion defines Day 1 of each 21-day treatment cycle. The combination treatment just described is to continue for up to 8 cycles at the investigator's discretion. During Cycles 5 through 8, patients being treated with doxorubicin may also be administered 750 mg/m^2 dexrazoxane on Day 1 of each cycle, (at the investigator's discretion) prior to doxorubicin on Day 1 of each 21-day cycle. If the dose of doxorubicin is reduced at any point in the Study, the dose of dexrazoxane is to be reduced accordingly, maintaining a dosage ratio of 10:1. For example, if doxorubicin is reduced to 60 mg/m^2, then dexrazoxane is to be reduced to 600 mg/m^2. Doxorubicin may be administered within the hour that follows completion of the olaratumab infusion. In the absence of PD or other withdrawal criteria, patients in the Combination Arm who have completed eight cycles of therapy are to receive subsequent olaratumab monotherapy, administered on Days 1 and 8 of each 21-day cycle. Furthermore, if doxorubicin is discontinued (e.g., for reasons of toxicity) prior to end of cycle 8 and in the absence of withdrawal criteria, patients may continue to receive olaratumab monotherapy. For patients who discontinue olaratumab during the first 8 cycles of treatment, doxorubicin may be continued (for up to 8 cycles), provided no withdrawal criteria are met.
# Doxorubicin Arm: 67 patients randomized in the Doxorubicin Arm receive 75 mg/m^2 doxorubicin on Day 1 of each cycle, for up to 8 cycles at the investigator's discretion. The actual (not planned) administration of each doxorubicin infusion defines Day 1 of each 21-day treatment cycle. During cycles 5 through 8, 750 mg/m^2 dexrazoxane may also be administered on Day 1 of each cycle, (at the investigator's discretion) prior to doxorubicin on Day 1 of each 21-day cycle. If the dose of doxorubicin is reduced at any point in the Study, the dose of dexrazoxane is to be reduced accordingly, maintaining a dosage ratio of 10:1. For example, if doxorubicin is reduced to 60 mg/m^2, then dexrazoxane is to be reduced to 600 mg/m^2. […]
# [2] = system: patients with advanced STS; assay: Matched case-control exposure-response analysis of OS and PFS across quartiles of olaratumab serum levels; format: in vivo, human
# Protocol: (§1) Pharmacokinetics and Exposure-response Analysis of The “Study”: The PFS, OS, PK and safety data from patients who received olaratumab in the Study, as discussed above, were analyzed.
# (§2) The effect of olaratumab serum levels is explored using average serum concentration (Cavg) and trough serum concentration after cycle 1 (Cmin1). The PFS and OS data are analyzed using a matched case-control (MCC) analysis across quartiles of olaratumab serum levels and a time-to-event (survival) model with a constant baseline hazard and a Hill function to describe the effect of olaratumab. The rate of treatment-emergent adverse events (TEAEs) is compared across quartiles of olaratumab exposure.
# [3] = system: patients with advanced STS; assay: Time-to-event (survival) model of the effect of olaratumab serum levels on PFS/OS hazard; format: in vivo, human; details: Cmin1-based and Cavg-based models
# Text: Further, FIG. 1, illustrates the predicted effect of olaratumab on HR for PFS. In FIG. 1. PFS as predicted by Cmin1-based model is shown in the left panel and the Cavg-based model is shown in the right panel. The solid red lines describe the change in HR as a function of Cmin1 and Cavg; the grey histograms describe the distribution of olaratumab Cmin1 and Cavg in the Study experimental arm together with their quartiles (dashed blue lines) the green dashed lines indicate ECmin150 and ECavg50.
# [4] = design: species or system human; details: in vivo
# Text: The rate of treatment-emergent adverse events (TEAEs) is compared across quartiles of olaratumab exposure.
# [5] = Population PK (PopPK) model using PK data from 4 Phase 2 studies; format: in vivo, human; details: irrespective of indication
# Text: • Population Pharmacokinetics Analysis of the Four Phase 2 Clinical Studies: A population PK (PopPK) model was developed using PK data from 4 Phase 2 studies (www.clinicaltrials.gov study numbers NCT00918203 (A Randomized Phase 2 Study of Human Anti-PDGFRα. Monoclonal Antibody (IMC-3G3) With Paclitaxel/Carboplatin or Paclitaxel/Carboplatin Alone in Previously Untreated Patients With Locally Advanced or Metastatic Non-Small Cell Lung Cancer), NCT01185964 (A Phase 1b/2 Randomized Phase 2 Study Evaluating the Efficacy of Doxorubicin With or Without a Human Anti-PDGFRα Monoclonal Antibody (IMC-3G3) in the Treatment of Advanced Soft Tissue Sarcoma), NCT00895180 (An Open Label, Phase 2 Study Evaluating the Safety and Efficacy of IMC-3G3 or MC-1121B in Patients With Recurrent Glioblastoma Multiforme), and NCT01316263 (A Phase 2 Study of a Human Anti-PDGFRα Monoclonal Antibody (IMC-3G3) in Previously Treated Patients With Unresectable and/or Metastatic Gastrointestinal Stromal Tumors (GIST)). […] A Randomized, Double Blind, Placebo-Controlled, Phase 3 Trial of Doxorubicin Plus Olaratumab Versus Doxorubicin Plus Placebo in Patients With Advanced Soft Tissue Sarcoma (the “Phase 3 Study”) The present invention is being further tested in the Phase 3 Study (trial number NCT02451943 available on clinicaltrials.gov https://clinicaltrials.gov/ct2/show/NCT02451943?term=ANNOUNCE&rank=1).
# [6] = Olaratumab serum concentrations (pharmacokinetics) in the Study
# Protocol: Serum levels can be measured by an enzyme-linked immunosorbent assay; a test that uses antibodies and color change to identify and quantify a substance.
# as §1, §2
# [7] = Cavg Q1 (56 < 134.4) μg/mL, 15 patients per group
# [8] = Cavg Q3 (≥175.2-<249.9) μg/mL, 15 patients per group
# [9] = Cavg Q4 (≥249.9-347.3) μg/mL, 16 patients per group
# [10] = Cmin1 Q1 (12.3-<62.8) μg/mL, 15 patients per group
# [11] = Cmin1 Q2 (≥62.8-<86.9) μg/mL, 16 patients per group
# [12] = Cmin1 Q4 (≥105.6-188.1) μg/mL, 16 patients per group
molecule,measurement,setting,value
olaratumab,stratified HR for overall survival,"[1]; Combination Arm vs Doxorubicin Arm, final analysis",0.46
same,median OS,[1]; final analysis,26.5 months
same,median PFS,[1]; final analysis,6.6 months
same,stratified HR for progression-free survival,"[1]; olaratumab plus doxorubicin vs doxorubicin, final analysis",0.672
same,OS improvement in the lowest exposure quartile,"[2]; Cmin1<63 μg/mL, N=15",no improvement in OS; also recorded: did not show OS improvement; also recorded: did not have OS
same,PFS and OS improvement in the upper quartiles of olaratumab serum exposure,[2]; regardless of Cmin at end of cycle 1 or average serum concentration,greater improvement in progression-free survival and overall survival
same,predicted effect of olaratumab on HR for PFS (FIG. 1),[3],not predicted to change until the Cmin1 or Cavg reaches values corresponding to the 25th percentile of their distribution in the study
same,"Mucositis Grade <=2 (consolidated TEAE), number of patients",[4],32
same,"Mucositis Grade <=2, % (consolidated TEAE)",[4],(51.6) %
same,"Mucositis Grade >2 (consolidated TEAE), number of patients",[4],2
same,"Mucositis Grade >2, % (consolidated TEAE)",[4],(3.2) %
same,"Mucositis Grade >=4 (consolidated TEAE), number of patients",[4],0
same,"Neutropenia Grade <=2 (consolidated TEAE), number of patients",[4],3
same,"Neutropenia Grade <=2, % (consolidated TEAE)",[4],(4.8) %
same,"Neutropenia Grade >2 (consolidated TEAE), number of patients",[4],35
same,"Neutropenia Grade >2, % (consolidated TEAE)",[4],(56.5) %
same,"Neutropenia Grade >=4 (consolidated TEAE), number of patients",[4],23
same,"Neutropenia Grade >=4, % (consolidated TEAE)",[4],(37.1) %
same,"TEAE Overall Grade <=2, %",[4],(19.4) %
same,"TEAE Overall Grade <=2, number of patients",[4],12
same,"TEAE Overall Grade >2, %",[4],(79.0) %
same,"TEAE Overall Grade >2, number of patients",[4],49
same,"TEAE Overall Grade >=4, %",[4],(40.3) %
same,"TEAE Overall Grade >=4, number of patients",[4],25
same,cycle in which steady-state olaratumab serum levels are achieved (PopPK model),[5],≥ 3 Cycle
same,mean maximum serum concentration (Cmax) after the first dose,"[6]; 15 mg/kg, cycle 1",284 µg/mL
same,mean maximum serum concentration (Cmax) after the second dose,"[6]; 15 mg/kg, cycle 1",293 µg/mL
same,Cavg range,"[6]; Overall, n = 62, average over entire treatment",56.0 to 347.3 µg/mL
same,Cmin1 range,"[6]; Overall, n = 62, trough at the end of Cycle 1",12.3 to 188.1 µg/mL
same,mean trough serum concentration (Cmin) at the end of the cycle,[6]; cycle 1,66.5 µg/mL
same,individual apparent terminal elimination half-life,[6]; during cycle 3,6.67 days and 14.4 days
same,cycle in which steady state is reached,[6]; in vivo,3 cycle
COc1cccc2c1C(=O)c1c(O)c3c(c(O)c1C2=O)C[C@@](O)(C(=O)CO)C[C@@H]3O[C@H]1C[C@H](N)[C@H](O)[C@H](C)O1 [doxorubicin],median OS,[1]; final analysis,14.7 months
same,median PFS,[1]; final analysis,4.1 months
same,"median progression-free survival, blinded independent retrospective review",[1]; in vivo,4.4 months
same,"objective response rate, independent assessment",[1]; in vivo,7.5%
same,objective response rate,"[1]; investigator assessment, RECIST 1.1",11.9%
same,"Number of events, overall survival",[2]; [7],15/13
same,"Number of events, progression-free survival",[2]; [7],15/14
same,"Number of events, progression-free survival","[2]; Cavg Q2 (≥134.4-<175,2) μg/mL, 16 patients per group",16/10
same,"Number of events, overall survival","[2]; Cavg Q2 (≥134.4-<175.2) μg/mL, 16 patients per group",16/14
same,"Number of events, overall survival",[2]; [8],15/7
same,"Number of events, progression-free survival",[2]; [8],15/8
same,"Number of events, overall survival",[2]; [9],16/11
same,"Number of events, progression-free survival",[2]; [9],16/12
same,"Number of events, overall survival",[2]; [10],15/12
same,"Number of events, progression-free survival",[2]; [10],15/11
same,"Number of events, overall survival",[2]; [11],16/13
same,"Number of events, progression-free survival",[2]; [11],16/9
same,"Number of events, overall survival","[2]; Cmin1 Q3 (≥86.9-<105.6) μg/mL, 15 patients per group",15/8
same,"Number of events, progression-free survival","[2]; Cmin1 Q3 (≥86.9=<105.6) μg/mL, 15 patients per group",15/10
same,"Number of events, overall survival",[2]; [12],16/10
same,"Number of events, progression-free survival",[2]; [12],16/11
same,"Mucositis Grade <=2 (consolidated TEAE), number of patients",[4]; human,20
same,"Mucositis Grade <=2, % (consolidated TEAE)",[4]; human,(30.8) %
same,"Mucositis Grade >2 (consolidated TEAE), number of patients",[4]; human,3
same,"Mucositis Grade >2, % (consolidated TEAE)",[4]; human,(4.6) %
same,"Mucositis Grade >=4 (consolidated TEAE), number of patients",[4]; human,0
same,"Neutropenia Grade <=2 (consolidated TEAE), number of patients",[4]; human,3
same,"Neutropenia Grade <=2, % (consolidated TEAE)",[4]; human,(4.6) %
same,"Neutropenia Grade >2 (consolidated TEAE), number of patients",[4]; human,22
same,"Neutropenia Grade >2, % (consolidated TEAE)",[4]; human,(33.8) %
same,"Neutropenia Grade >=4 (consolidated TEAE), number of patients",[4]; human,17
same,"Neutropenia Grade >=4, % (consolidated TEAE)",[4]; human,(26.2) %
same,"TEAE Overall Grade <=2, %",[4]; human,(29.2) %
same,"TEAE Overall Grade <=2, number of patients",[4]; human,19
same,"TEAE Overall Grade >2, %",[4]; human,(69.2) %
same,"TEAE Overall Grade >2, number of patients",[4]; human,45
same,"TEAE Overall Grade >=4, %",[4]; human,(30.8) %
same,"TEAE Overall Grade >=4, number of patients",[4]; human,20
